Patent US9127040B2, “Regulation of sodium channels by PLUNC proteins” (The University of North Carolina at Chapel Hill, priority 2011, dated 2015)
Ends that are not written are not given here.

Assays:
[1] = target: T1, human ASIC1a (Homo sapiens, UniProt P78348); test: Whole-cell patch-clamp currents in CHO cells stably expressing ASIC; format: cell-based; conditions: 10 μM S18
T1 construct: expressed in transfected cells
Description: (§1) Previously described cell lines expressing human ASIC1a, human ASIC2a and rat ASIC3 were used in these experiments (Poirot, J. Biol. Chem. 279: 38448 (2004))). Electrophysiological measurements were carried out with an EPC10 patch-clamp amplifier (HEKA Electronics, Lambrecht, Germany) as previously described (Blanchard et al., Pflugers Arch. 461:123 (2011)).
(§2) Whole-cell currents were measured from CHO cells stably expressing acid-sensing ion channel (ASIC) subunits, voltage clamped to −60 mV. Stimulations lasted 5 s and were performed every 45 s. Cells were stimulated three times with pH 6.6 (ASIC1a and -3) or pH 4 (ASIC2a). Between stimulations, cells were returned to a pH 7.4 conditioning solution for […] recovery from inactivation. The conditioning solution was then switched to a pH 7.4 solution containing 10 μM S18. Three stimulations in the presence of 10 μM S18 were performed before washing off the peptide. Current amplitudes of the above described experiments were normalized to the first control value and plotted as a function of time (FIG. 28B). S18 was added at T=0 s. ASIC1a=▪, ASIC2a=●, ASIC3=▴, all n=3. Cells were incubated for 40 s in a pH 7.1 (ASIC1a and -3) or 5.6 (ASIC2a) conditioning solution, then activated using an acidic stimulus (pH 5 for ASIC1a and -3, and pH 4 for ASIC2a) (FIG. 28C). Experiments were performed with or without 10 μM S18 in the conditioning solution. Current amplitudes measured during the acidic stimulus were normalized to the control amplitude obtained with a pH 7.4 conditioning solution. Open bars=control, closed bars=S18, all n=3-4. […] Stimulations were performed every 45 s. The protocol was performed with or without 10 μM S18 in all solutions. The average current is plotted as a function of time. […] Control=∘, S18=▪, all n=3-5.

[2] = target: T2, rat ASIC3 (Rattus norvegicus, UniProt O35240); test: as above; format: cell-based; conditions: 10 μM S18
T2 construct: expressed in transfected cells
T2 sequence (O35240 whole entry): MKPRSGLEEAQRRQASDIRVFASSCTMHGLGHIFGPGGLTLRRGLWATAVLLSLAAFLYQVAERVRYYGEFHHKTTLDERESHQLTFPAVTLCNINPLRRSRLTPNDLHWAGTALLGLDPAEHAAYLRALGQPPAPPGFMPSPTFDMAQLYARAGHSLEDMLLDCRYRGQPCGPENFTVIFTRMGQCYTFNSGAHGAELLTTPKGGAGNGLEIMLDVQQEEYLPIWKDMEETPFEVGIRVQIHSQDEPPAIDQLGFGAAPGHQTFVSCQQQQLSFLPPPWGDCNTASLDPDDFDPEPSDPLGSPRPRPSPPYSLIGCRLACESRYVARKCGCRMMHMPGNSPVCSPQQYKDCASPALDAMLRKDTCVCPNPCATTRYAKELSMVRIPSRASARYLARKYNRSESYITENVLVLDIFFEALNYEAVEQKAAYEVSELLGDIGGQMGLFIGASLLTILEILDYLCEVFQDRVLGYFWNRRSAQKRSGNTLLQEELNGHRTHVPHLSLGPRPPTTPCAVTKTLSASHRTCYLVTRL
Description: as §1, §2

[3] = target: T3, human ASIC2a (Homo sapiens, UniProt Q16515); test: as above; format: cell-based; conditions: 10 μM S18
T3 construct: expressed in transfected cells
T3 sequence (Q16515 whole entry): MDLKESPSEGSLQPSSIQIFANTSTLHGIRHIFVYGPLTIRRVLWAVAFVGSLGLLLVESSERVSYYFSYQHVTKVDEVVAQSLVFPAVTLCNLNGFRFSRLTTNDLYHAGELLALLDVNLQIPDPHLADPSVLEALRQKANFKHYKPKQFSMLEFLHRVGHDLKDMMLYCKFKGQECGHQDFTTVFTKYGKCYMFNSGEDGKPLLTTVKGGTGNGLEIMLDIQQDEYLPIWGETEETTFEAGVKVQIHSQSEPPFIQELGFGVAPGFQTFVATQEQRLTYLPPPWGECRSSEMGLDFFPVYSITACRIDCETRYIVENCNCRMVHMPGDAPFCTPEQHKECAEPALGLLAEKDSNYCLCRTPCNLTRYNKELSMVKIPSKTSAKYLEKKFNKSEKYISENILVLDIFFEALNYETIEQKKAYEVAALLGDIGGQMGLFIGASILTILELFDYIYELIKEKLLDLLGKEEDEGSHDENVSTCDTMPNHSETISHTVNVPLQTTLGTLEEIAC
Description: as §1, §2

[4] = Urinary Na+ excretion (natriuresis) in anesthetized mice after intravenous infusion; format: in vivo; conditions: 250 nmol/g BW/h intravenous infusion, unconscious mice
Description: To study the effects of SPLUNC1-derived peptides on the in vivo kidney, mice were anesthetized. After a baseline 45 min control clearance period, S18-type peptide or amiloride were infused intravenously over 30 min and the natriuretic response recorded over the subsequent 2-3 h.
Urinary Na^+ output was measured in unconscious mice (FIG. 32). Amiloride (38 nmol/g BW/h; ▪) and S18 (250 nmol/g BW/h; ▴) were added during the infusion period and urinary Na^+ excretion (UNaV) was measured throughout.

T1 sequence (P78348 whole entry): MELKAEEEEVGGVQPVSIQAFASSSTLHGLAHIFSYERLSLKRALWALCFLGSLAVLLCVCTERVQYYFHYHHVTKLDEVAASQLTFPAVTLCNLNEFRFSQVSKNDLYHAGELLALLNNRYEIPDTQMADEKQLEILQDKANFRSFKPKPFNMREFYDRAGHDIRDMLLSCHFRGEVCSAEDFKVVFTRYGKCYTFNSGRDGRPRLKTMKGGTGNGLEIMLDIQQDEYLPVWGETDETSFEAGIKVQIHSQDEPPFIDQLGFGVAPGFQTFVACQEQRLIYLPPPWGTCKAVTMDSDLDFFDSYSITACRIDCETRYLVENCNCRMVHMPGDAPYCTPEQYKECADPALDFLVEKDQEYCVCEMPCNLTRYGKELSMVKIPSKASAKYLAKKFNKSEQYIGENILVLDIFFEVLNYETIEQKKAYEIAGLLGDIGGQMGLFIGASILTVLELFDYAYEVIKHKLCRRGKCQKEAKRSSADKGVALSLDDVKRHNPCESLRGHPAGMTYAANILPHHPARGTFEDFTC

In the case of GGLPVPLDQTLPLNVNPA [S18], the “function of ASIC1a channels” value [1] is reported as “does not Affect the Function”, the “function of ASIC3 channels” value [2] is reported as “does not Affect the Function” and the “function of ASIC2a channels” value [3] is reported as “does not Affect the Function”. The “urinary Na+ excretion (UNaV)” value [4] was “induces natriuresis”.
